Data on twelve molecules can be found in US20220324835A1 (Nurix Therapeutics, Inc., priority 2018, published 2022).

Experiment [1] concerns T-cell. Nature of the experiment: IL-2 secretion from T-cells stimulated with anti-CD3 antibody alone (Biological Example 2). Format: cell-based, human. Particulars: Homo sapiens, T-cell; 1 μM Cbl-b inhibitor; fold change over baseline (anti-CD3/anti-CD28 stimulated T-cells without inhibitor); read-out: IL-2 secretion Anti-CD3 stimulation.
The subject of experiment [2] is T-cell. Description: IL-2 secretion from T-cells co-stimulated with anti-CD3 and anti-CD28 antibody (Biological Example 2). Format: cell-based, human. As to conditions: Homo sapiens, T-cell, fold change over baseline (anti-CD3/anti-CD28 stimulated T-cells without inhibitor), read-out: IL-2 secretion Anti-CD3/Anti-CD28 stimulation; for fold induction at 0.3 µM: 0.3 μM Cbl-b inhibitor; for fold induction at 1 µM: 1 μM Cbl-b inhibitor. Put shortly: (§1)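 T-cells were stimulated with anti-CD3 antibody alone or with anti-CD28 antibody, in the presence or absence of Cbl-b inhibitor. IL-2 secretion or CD25 surface staining was measured, and values expressed as fold over the uninhibited baseline […].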

In experiment [3] the test system is T-cell. Nature of the experiment: CD25 cell surface staining on T-cells stimulated with anti-CD3 antibody alone (Biological Example 2). The format is cell-based, human. As to conditions: Homo sapiens, T-cell; 1 μM Cbl-b inhibitor; fold change over baseline (anti-CD3/anti-CD28 stimulated T-cells without inhibitor); read-out: CD25 staining Anti-CD3 stimulation.
Experiment [4] has as its target T1, Cbl-b (Homo sapiens, UniProt Q13191). Description: Cbl-b activity assay (Cbl-b inhibition assay), TR-FRET of Cbl-b interaction with UbcH5B-Ub. As to conditions: assay buffer with 100 mM NaCl, 60 nM Src kinase; read-out: Cbl-b activity IC50. The format is biochemical. In a few lines:
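UbcH5B (C85K) conjugated to N-terminally Bodipy-Fluorescein-labeled ubiquitin served as the fluorescent partner. After compound preincubation, Src kinase (60 nM) with 1 mM ATP and 5 mM MgCl2 (final) was added for 1.5 h, followed by a further 1 h incubation. Some values were obtained with 50 mM NaCl and 30 nM Src.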
Background: In TR-FRET formats the signal depends on donor and acceptor labels being close together.

Experiment [5] addresses T1, Cbl-b. Description: Cbl-b inhibition assay (Cbl-b activity assay, FRET, Biological Example 1; 100 mM NaCl, 60 nM Src kinase). The format is biochemical. As to conditions: upper bound stated in text lists; read-out: IC50 values in the Cbl-b inhibition assay of Biological Example 1. Put shortly:
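Binding-based Cbl-b activity assay. Src-phosphorylated, N-terminally biotin-Avi-tagged Cbl-b recruits labelled UbcH5B-Ub, and proximity to streptavidin-terbium yields FRET.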

For experiment [6], the system named is T-cell. Description: CD25 cell surface staining on T-cells co-stimulated with anti-CD3 and anti-CD28 antibody (Biological Example 2). Format: cell-based, human. As to conditions: Homo sapiens, T-cell, fold change over baseline (anti-CD3/anti-CD28 stimulated T-cells without inhibitor), read-out: CD25 staining Anti-CD3/Anti-CD28 stimulation; for fold induction at 0.3 µM: 0.3 μM Cbl-b inhibitor; for fold induction at 1 µM: 1 μM Cbl-b inhibitor. Put shortly: as §1

T1 sequence (Q13191 36-427): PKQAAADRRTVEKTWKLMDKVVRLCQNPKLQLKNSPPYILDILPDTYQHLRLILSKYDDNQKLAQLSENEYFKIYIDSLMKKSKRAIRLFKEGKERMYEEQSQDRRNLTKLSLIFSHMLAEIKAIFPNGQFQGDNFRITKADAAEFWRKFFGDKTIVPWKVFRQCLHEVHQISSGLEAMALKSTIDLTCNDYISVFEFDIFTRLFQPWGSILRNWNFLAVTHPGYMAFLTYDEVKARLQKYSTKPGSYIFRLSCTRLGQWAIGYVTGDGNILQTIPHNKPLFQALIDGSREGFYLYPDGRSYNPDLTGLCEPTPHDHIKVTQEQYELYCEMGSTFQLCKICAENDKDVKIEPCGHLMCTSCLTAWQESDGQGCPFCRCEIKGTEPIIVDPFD

The term IC50 denotes the point on the concentration scale where inhibition reaches its midpoint. As for `Cn1cnnc1CC1(c2cccc(N3Cc4c(cc(CN5CCCCC(F)C5)cc4C(F)(F)F)C3=O)c2)COC1` (stereo not drawn) [Example 627, 6-((3-fluoroazepan-1-yl)methyl)-2-(3-(3-((4-methyl-4H-1,2,4-triazol-3-yl)methyl)oxetan-3-yl)phenyl)-4-(trifluoromethyl)isoindolin-1-one], the fold induction at 1 µM was greater than 0.201 with T-cell [1], greater than 7.5 in the experiment on T-cell [2], greater than 1 in the experiment on T-cell [3] and 1.31 to 1.5 in the experiment on T-cell [6]. In addition, the fold induction at 0.3 µM with T-cell [2] was in the range of 5 to 7.5; with T-cell [6], 1.31 to 1.5. Moreover, the concentration for half-maximal inhibition (IC50) is less than 0.1 µM at Cbl-b [4] and no more than 0.1 µM on Cbl-b [5].
On to `Cn1cnnc1CC1(c2cccc(N3Cc4c(cc(CN5CCC(C#N)CC5)cc4C(F)(F)F)C3=O)c2)COC1` [Example 628, 1-((2-(3-(3-((4-methyl-4H-1,2,4-triazol-3-yl)methyl)oxetan-3-yl)phenyl)-3-oxo-7-(trifluoromethyl)isoindolin-5-yl)methyl)piperidine-4-carbonitrile], for which the fold induction at 1 µM in the experiment with T-cell [1] was greater than 0.201; in the experiment with T-cell [2], greater than 7.5; with T-cell [3], greater than 1; with T-cell [6], 1.31 to 1.5. Besides, the fold induction at 0.3 µM with T-cell [2] lay within 5 to 7.5; with T-cell [6], 1.31 to 1.5. The figures for the IC50 at Cbl-b [4] and at Cbl-b [5] were less than 0.1 µM and no more than 0.1 µM, respectively.
Consider `CCOC1CCCN(Cc2cc3c(c(C(F)(F)F)c2)CN(c2cccc(C4(Cc5nncn5C)COC4)c2)C3=O)C1` (stereo not drawn) [Example 629, 6-((3-ethoxypiperidin-1-yl)methyl)-2-(3-(3-((4-methyl-4H-1,2,4-triazol-3-yl)methyl)oxetan-3-yl)phenyl)-4-(trifluoromethyl)isoindolin-1-one], for which the fold induction at 1 µM in the experiment on T-cell [1] was greater than 0.201; in the experiment with T-cell [2], greater than 7.5; with T-cell [3], greater than 1; in the experiment with T-cell [6], 1.51 to 1.75. Also, the fold induction at 0.3 µM in the experiment with T-cell [2] is greater than 7.5; in the experiment with T-cell [6], 1.51 to 1.75. The IC50 at Cbl-b [4] is less than 0.1 µM; on Cbl-b [5] it was no more than 0.1 µM.
Take `COC1CCN(Cc2cc3c(c(C(F)(F)F)c2)CN(c2cccc(C4(Cc5nncn5C)COC4)c2)C3=O)CC1` [Example 632, 6-((4-methoxypiperidin-1-yl)methyl)-2-(3-(3-((4-methyl-4H-1,2,4-triazol-3-yl)methyl)oxetan-3-yl)phenyl)-4-(trifluoromethyl)isoindolin-1-one]: the fold induction at 1 µM in the experiment with T-cell [1] is greater than 0.201; with T-cell [2] it was greater than 7.5; in the experiment with T-cell [3], greater than 1; in the experiment with T-cell [6], 1.51 to 1.75. Moreover, the fold induction at 0.3 µM in the experiment on T-cell [2] was greater than 7.5; with T-cell [6], 1.31 to 1.5. Besides, the 50% inhibitory concentration (IC50) at Cbl-b [4] was less than 0.1 µM; on Cbl-b [5], no more than 0.1 µM.
For the molecule `Cn1cnnc1CC1(c2cccc(N3Cc4c(cc(CN5CCC(F)(F)CC5)cc4C(F)(F)F)C3=O)c2)COC1` [Example 633, 6-((4,4-difluoropiperidin-1-yl)methyl)-2-(3-(3-((4-methyl-4H-1,2,4-triazol-3-yl)methyl)oxetan-3-yl)phenyl)-4-(trifluoromethyl)isoindolin-1-one], the fold induction at 1 µM in the experiment with T-cell [1] is greater than 0.201; in the experiment with T-cell [2] it was greater than 7.5; in the experiment with T-cell [3], greater than 1; in the experiment on T-cell [6], 1.31 to 1.5. For the same molecule, the fold induction at 0.3 µM is greater than 7.5 with T-cell [2] and 1.31 to 1.5 with T-cell [6]. The IC50 at Cbl-b [4] is less than 0.1 µM; on Cbl-b [5] it was no more than 0.1 µM.
Consider `CC1CCN(Cc2cc3c(c(C(F)(F)F)c2)CN(c2cccc(C4(Cc5nncn5C)COC4)c2)C3=O)CC1(F)F` (stereo not drawn) [Example 635, 6-((3,3-difluoro-4-methylpiperidin-1-yl)methyl)-2-(3-(3-((4-methyl-4H-1,2,4-triazol-3-yl)methyl)oxetan-3-yl)phenyl)-4-(trifluoromethyl)isoindolin-1-one], for which the fold induction at 1 µM is greater than 0.201 with T-cell [1], greater than 7.5 with T-cell [2], greater than 1 in the experiment on T-cell [3] and 1.31 to 1.5 with T-cell [6]. The fold induction at 0.3 µM in the experiment on T-cell [2] was greater than 7.5; with T-cell [6] it was 1.31 to 1.5. Moreover, the results for the half-inhibitory concentration (IC50) at Cbl-b [4] and at Cbl-b [5] were less than 0.1 µM and no more than 0.1 µM, respectively.
For `Cn1cnnc1CC1(c2cccc(N3Cc4c(cc(CN5CCC6(CC6)C(F)(F)C5)cc4C(F)(F)F)C3=O)c2)COC1` [Example 636, 6-((4,4-difluoro-6-azaspiro[2.5]octan-6-yl)methyl)-2-(3-(3-((4-methyl-4H-1,2,4-triazol-3-yl)methyl)oxetan-3-yl)phenyl)-4-(trifluoromethyl)isoindolin-1-one], the fold induction at 1 µM with T-cell [1] was greater than 0.201; in the experiment with T-cell [2], greater than 7.5; in the experiment on T-cell [3], greater than 1; with T-cell [6] it was 1.31 to 1.5. The values for the fold induction at 0.3 µM in the experiment on T-cell [2] and in the experiment on T-cell [6] were 2.51 to 5 and 1.31 to 1.5, respectively. The figures for the half-inhibitory concentration (IC50) on Cbl-b [4] and on Cbl-b [5] were less than 0.1 µM and no more than 0.1 µM, respectively.
Turning to `COC1CCCN(Cc2cc3c(c(C(F)(F)F)c2)CN(c2cccc(C4(Cc5nncn5C)COC4)c2)C3=O)C1` (stereo not drawn) [Example 637, 6-((3-methoxypiperidin-1-yl)methyl)-2-(3-(3-((4-methyl-4H-1,2,4-triazol-3-yl)methyl)oxetan-3-yl)phenyl)-4-(trifluoromethyl)isoindolin-1-one], the fold induction at 1 µM with T-cell [1] is greater than 0.201; in the experiment on T-cell [2], greater than 7.5; in the experiment with T-cell [3], greater than 1; with T-cell [6] it was 1.51 to 1.75. Moreover, the fold induction at 0.3 µM with T-cell [2] was greater than 7.5; with T-cell [6], 1.31 to 1.5. Moreover, the results for the IC50 at Cbl-b [4] and on Cbl-b [5] were less than 0.1 µM and no more than 0.1 µM, respectively.
On to `Cn1cnnc1CC1(c2cccc(N3Cc4c(cc(CN5CCC6(CC5)CC6)cc4C(F)(F)F)C3=O)c2)COC1` [Example 641, 6-((6-azaspiro[2.5]octan-6-yl)methyl)-2-(3-(3-((4-methyl-4H-1,2,4-triazol-3-yl)methyl)oxetan-3-yl)phenyl)-4-(trifluoromethyl)isoindolin-1-one], for which the fold induction at 1 µM in the experiment on T-cell [1] is greater than 0.201; in the experiment on T-cell [2] it was greater than 7.5; with T-cell [3], greater than 1; in the experiment on T-cell [6], 1.51 to 1.75. Besides, the fold induction at 0.3 µM was greater than 7.5 with T-cell [2] and 1.51 to 1.75 in the experiment on T-cell [6]. Also, the 50% inhibitory concentration (IC50) is less than 0.1 µM on Cbl-b [4] and no more than 0.1 µM at Cbl-b [5].
On to `Cn1cnnc1CC1(c2cccc(N3Cc4c(cc(CN5CCC(C)(C#N)CC5)cc4C(F)(F)F)C3=O)c2)COC1` [Example 642, 4-methyl-1-((2-(3-(3-((4-methyl-4H-1,2,4-triazol-3-yl)methyl)oxetan-3-yl)phenyl)-3-oxo-7-(trifluoromethyl)isoindolin-5-yl)methyl)piperidine-4-carbonitrile], for which the fold induction at 1 µM in the experiment with T-cell [1] was 0.151 to 0.2; in the experiment with T-cell [2], greater than 7.5; in the experiment on T-cell [3], greater than 1; in the experiment on T-cell [6] it was 1.31 to 1.5. Further, the fold induction at 0.3 µM with T-cell [2] is greater than 7.5; in the experiment on T-cell [6], 1.31 to 1.5. The IC50 is less than 0.1 µM on Cbl-b [4] and no more than 0.1 µM on Cbl-b [5].
As for `Cn1cnnc1CC1(c2cccc(N3Cc4c(cc(CN5CCC(C(F)F)CC5)cc4C(F)(F)F)C3=O)c2)COC1` [Example 643, 6-((4-(difluoromethyl)piperidin-1-yl)methyl)-2-(3-(3-((4-methyl-4H-1,2,4-triazol-3-yl)methyl)oxetan-3-yl)phenyl)-4-(trifluoromethyl)isoindolin-1-one], the fold induction at 1 µM in the experiment on T-cell [1] was 0.151 to 0.2; in the experiment on T-cell [2], greater than 7.5; with T-cell [3] it was greater than 1; with T-cell [6], 1.31 to 1.5. For the same molecule, the values for the fold induction at 0.3 µM in the experiment with T-cell [2] and with T-cell [6] were 5 to 7.5 and 1.31 to 1.5, respectively. For the same molecule, the IC50 on Cbl-b [4] is less than 0.1 µM; on Cbl-b [5], no more than 0.1 µM.
`Cn1cnnc1CC1(c2cccc(N3Cc4c(cc(CN5CCC6CC6C5)cc4C(F)(F)F)C3=O)c2)COC1` (stereo not drawn) [Example 646, 6-((3-azabicyclo[4.1.0]heptan-3-yl)methyl)-2-(3-(3-((4-methyl-4H-1,2,4-triazol-3-yl)methyl)oxetan-3-yl)phenyl)-4-(trifluoromethyl)isoindolin-1-one]: the fold induction at 1 µM was greater than 0.201 with T-cell [1], greater than 7.5 in the experiment with T-cell [2], greater than 1 in the experiment with T-cell [3] and 1.31 to 1.5 in the experiment with T-cell [6]. Moreover, the figures for the fold induction at 0.3 µM in the experiment on T-cell [2] and with T-cell [6] were greater than 7.5 and 1.31 to 1.5, respectively. In addition, the concentration for half-maximal inhibition (IC50) on Cbl-b [4] was less than 0.1 µM; on Cbl-b [5] it was no more than 0.1 µM.
